Results on 18 compounds are retold here after US11999727B2 (Tango Therapeutics, Inc., priority 2020, dated 2024).

Experiment [1] has as its target T1, PRMT5 (Homo sapiens, UniProt O14744).
T1 construct: purchased Viva (custom protein)
The experiment in a line: PRMT5 biochemical IC50 assay with SAM as cofactor. Particulars: PRMT5, SAM as cofactor; read-out: SAM IC50.

Experiment [2] concerns the target T1, PRMT5. The experiment in a line: PRMT5 biochemical IC50 assay with no cofactor. Particulars: PRMT5, no cofactor; read-out: No Cofactor/rel IC50. The source says: Table 1 indicates IC50 values (μM) against PRMT5 for exemplary compounds in the presence of SAM as cofactor, with no cofactor, and with MTA as cofactor, respectively (columns 4-6). […] Ki values can be calculated from the IC50 values as described in the Examples section. As detailed in the Examples section, for the assay performed in the presence of SAM, IC50=Ki×1.5 (Ki=IC50/1.5).

Experiment [3] deals with T1, PRMT5. The experiment in a line: PRMT5 biochemical IC50 assay with MTA as cofactor. Particulars: PRMT5, MTA as cofactor; read-out: MTA IC50.
Experiment [4] has as its system HAP1 MTAP-intact cell line. The experiment in a line: SDMA in-cell western assay, HAP1 MTAP-intact. To be noted: Homo sapiens, HAP1, SDMA in-cell western, HAP1 MTAP-intact; read-out: MTAP HAP1 intact IC50. The experiment is classed as cell-based. In short, it runs like this: (§1)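 Readout: in-cell western detection of SDMA. Cells: HAP1 expressing endogenous MTAP and an MTAP-null HAP1 counterpart. Output: IC50.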

Experiment [5] relates to HAP1 MTAP-deleted cell line. The experiment in a line: SDMA in-cell western assay, HAP1 MTAP-deleted. The experiment is classed as cell-based. Particulars: for IC50: Homo sapiens, HAP1, SDMA in-cell western, HAP1 MTAP-deleted, read-out: HAP 1 MTAP deleted IC50; for MTAP intact/deleted ratio: IC50 ratio HAP1 MTAP-intact / HAP1 MTAP-deleted, SDMA in-cell western. In outline:
as §1

In experiment [6] the test system is HAP1 MTAP-deleted cell line. The experiment in a line: Viability assay, MTAP-deleted cell line. To be noted: Homo sapiens, HAP1, viability assay, MTAP-deleted cell line; read-out: HAP1 MTAP deleted viability. Type of experiment: cell-based. The source says:
Table 1 additionally indicates IC50 values in a viability assay for the MTAP-deleted cell line (column 10), indicating the effect of treatment with compound on cell survival.

T1 sequence (O14744 whole entry): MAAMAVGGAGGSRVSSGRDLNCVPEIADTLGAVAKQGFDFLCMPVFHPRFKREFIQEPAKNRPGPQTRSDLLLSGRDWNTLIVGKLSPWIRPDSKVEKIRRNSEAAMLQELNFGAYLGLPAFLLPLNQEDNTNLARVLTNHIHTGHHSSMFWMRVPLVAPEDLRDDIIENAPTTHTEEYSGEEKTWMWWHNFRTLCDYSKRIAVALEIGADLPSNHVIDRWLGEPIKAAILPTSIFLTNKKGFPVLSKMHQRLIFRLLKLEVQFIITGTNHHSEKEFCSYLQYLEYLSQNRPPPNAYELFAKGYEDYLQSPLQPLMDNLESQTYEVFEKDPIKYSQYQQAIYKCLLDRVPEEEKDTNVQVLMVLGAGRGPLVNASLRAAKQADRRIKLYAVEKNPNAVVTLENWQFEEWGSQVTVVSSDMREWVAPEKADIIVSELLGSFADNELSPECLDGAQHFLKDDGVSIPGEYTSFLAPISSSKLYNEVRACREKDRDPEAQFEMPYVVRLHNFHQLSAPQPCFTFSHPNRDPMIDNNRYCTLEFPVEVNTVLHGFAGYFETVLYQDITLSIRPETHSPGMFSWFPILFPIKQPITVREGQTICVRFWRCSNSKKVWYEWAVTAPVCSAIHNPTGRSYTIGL
T1 sequence (Q9BQA1 whole entry partner): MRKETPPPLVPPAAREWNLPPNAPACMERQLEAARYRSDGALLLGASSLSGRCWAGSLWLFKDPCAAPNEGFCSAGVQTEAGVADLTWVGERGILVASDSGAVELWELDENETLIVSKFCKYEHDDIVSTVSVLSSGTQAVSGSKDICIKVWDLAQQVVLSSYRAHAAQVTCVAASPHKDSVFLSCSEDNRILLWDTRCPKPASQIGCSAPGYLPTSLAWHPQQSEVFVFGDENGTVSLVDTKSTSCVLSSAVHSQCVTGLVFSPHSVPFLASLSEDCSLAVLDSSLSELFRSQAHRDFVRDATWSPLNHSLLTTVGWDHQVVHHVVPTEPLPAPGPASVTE

`Cc1cc(NC(=O)C(=O)N2C[C@H](C)CC[C@H]2c2cccc3scnc23)cnc1N` (single isomer, unassigned) [Compound 960]: the IC50 at PRMT5 [1] was 50 to 500 nM; on PRMT5 [2], 50 to 500 nM; at PRMT5 [3], under 50 nM; in experiment [4], over 1000 nM; in experiment [5], 100 to 1000 nM; in experiment [6], 1000 to 10000 nM. Further, in experiment [5], the MTAP intact/deleted ratio entry was “A (an IC50 ratio greater than or equal to 10 fold)”.
As for `Cc1cc(NC(=O)C(=O)N2C[C@@H](C)CC[C@@H]2c2ccc3c(=O)[nH]ccc3c2)cnc1N` (single isomer, unassigned) [Compound 961], the IC50 at PRMT5 [1] was over 500 nM; on PRMT5 [2] it was 50 to 500 nM; on PRMT5 [3], under 50 nM; in experiment [4] it was over 1000 nM; in experiment [5], under 100 nM; in experiment [6], 1000 to 10000 nM. For the same compound, in experiment [5], the MTAP intact/deleted ratio result is given as “A (an IC50 ratio greater than or equal to 10 fold)”.
With `Cc1cc(NC(=O)C(=O)N2C[C@H](C)CC[C@H]2c2cccc3c2CCN3)cnc1N` (single isomer, unassigned) [Compound 962], the IC50 at PRMT5 [1] is 50 to 500 nM; at PRMT5 [2] it was 50 to 500 nM; at PRMT5 [3], under 50 nM; in experiment [4], over 1000 nM; in experiment [5], 100 to 1000 nM; in experiment [6], 1000 to 10000 nM. The MTAP intact/deleted ratio result in experiment [5] is “A (an IC50 ratio greater than or equal to 10 fold)”.
Regarding `Cc1nc2cc([C@@H]3CC[C@@H](C)CN3C(=O)C(=O)Nc3cnc(N)c(C)c3)ccc2[nH]1` (single isomer, unassigned) [Compound 963], the IC50 at PRMT5 [1] was over 500 nM; at PRMT5 [2], over 500 nM; at PRMT5 [3], over 500 nM; in experiment [4], over 1000 nM; in experiment [5] it was over 1000 nM; in experiment [6], over 10000 nM. In experiment [5], the MTAP intact/deleted ratio result is recorded as “B (an IC50 ratio greater than or equal to 3 fold but lower than 10 fold)”.
For `Cc1cc(NC(=O)C(=O)N2C[C@@H](C)CC[C@@H]2c2cccc3[nH]cnc23)cnc1N` (single isomer, unassigned) [Compound 964], the IC50 on PRMT5 [1] is over 500 nM; on PRMT5 [2], over 500 nM; on PRMT5 [3], over 500 nM; in experiment [4] it was over 1000 nM; in experiment [5], over 1000 nM; in experiment [6], over 10000 nM. For the same compound, the MTAP intact/deleted ratio result in experiment [5] is “C (an IC50 ratio of less than 3 fold)”.
As to `COc1ncc(NC(=O)C(=O)N2C[C@H](C)CC[C@H]2c2cc(Cl)cc(Cl)c2)cc1C(N)=O` (single isomer, unassigned) [Compound 965], the IC50 was over 500 nM at PRMT5 [1]; over 500 nM at PRMT5 [2]; over 500 nM on PRMT5 [3]; over 1000 nM in experiment [4]; over 1000 nM in experiment [5]; over 10000 nM in experiment [6]. For the same compound, the MTAP intact/deleted ratio result in experiment [5] is “B (an IC50 ratio greater than or equal to 3 fold but lower than 10 fold)”.
Regarding `CCc1cc(NC(=O)C(=O)N2C[C@H](C)CC[C@H]2c2cc(Cl)cc(Cl)c2)cnc1N` (single isomer, unassigned) [Compound 966], the IC50 at PRMT5 [1] was over 500 nM; on PRMT5 [2], over 500 nM; at PRMT5 [3], 50 to 500 nM; in experiment [4], over 1000 nM; in experiment [5] it was over 1000 nM; in experiment [6], over 10000 nM. In addition, the MTAP intact/deleted ratio entry in experiment [5] is listed as “B (an IC50 ratio greater than or equal to 3 fold but lower than 10 fold)”.
In the case of `CCc1cc(NC(=O)C(=O)N2C[C@@H](C)CC[C@@H]2c2cc3[nH]ncc3s2)cnc1N` (single isomer, unassigned) [Compound 967], the IC50 at PRMT5 [1] is over 500 nM; at PRMT5 [2], over 500 nM; on PRMT5 [3] it was over 500 nM; in experiment [4] it was over 1000 nM; in experiment [5], over 1000 nM; in experiment [6] it was over 10000 nM. Also, the MTAP intact/deleted ratio entry in experiment [5] was “B (an IC50 ratio greater than or equal to 3 fold but lower than 10 fold)”.
Consider `COc1ncc(NC(=O)C(=O)N2C[C@@H](C)CC[C@@H]2c2cc3cn[nH]c3s2)cc1C(N)=O` (single isomer, unassigned) [Compound 968, 2-methoxy-5-(2-(5-methyl-2-(1H-thieno[2,3-c]pyrazol-5-yl)piperidin-1-yl)-2-oxoacetamido)nicotinamide], for which the IC50 is 50 to 500 nM on PRMT5 [1]; under 50 nM at PRMT5 [2]; under 50 nM on PRMT5 [3]; 100 to 1000 nM in experiment [4]; under 100 nM in experiment [5]; under 1000 nM in experiment [6]. Also, the MTAP intact/deleted ratio result in experiment [5] was “A (an IC50 ratio greater than or equal to 10 fold)”.
For `Cc1cc(NC(=O)C(=O)N2C[C@H](C)CC[C@H]2c2cn[nH]c2)cnc1N` (single isomer, unassigned) [Compound 969], the IC50 was over 500 nM on PRMT5 [1]; over 500 nM at PRMT5 [2]; over 500 nM on PRMT5 [3]; over 1000 nM in experiment [4]; over 1000 nM in experiment [5]; over 10000 nM in experiment [6]. Also, the MTAP intact/deleted ratio entry in experiment [5] is recorded as “C (an IC50 ratio of less than 3 fold)”.
For the compound `C[C@@H]1CC[C@@H](c2cn[nH]c2)N(C(=O)C(=O)Nc2cncc(C(N)=O)c2)C1` (single isomer, unassigned) [Compound 970], the IC50 at PRMT5 [1] is over 500 nM; on PRMT5 [2], over 500 nM; on PRMT5 [3], over 500 nM; in experiment [4] it was over 1000 nM; in experiment [5] it was over 1000 nM; in experiment [6], over 10000 nM. For the same compound, in experiment [5], the MTAP intact/deleted ratio result was “C (an IC50 ratio of less than 3 fold)”.
For `Cc1cc(NC(=O)C(=O)N2C[C@@H](C)CC[C@@H]2c2ccc3sc(C(F)(F)F)nc3c2)cnc1N` (single isomer, unassigned) [Compound 972], the IC50 was 50 to 500 nM on PRMT5 [1]; 50 to 500 nM at PRMT5 [2]; under 50 nM on PRMT5 [3]; under 100 nM in experiment [4]; under 100 nM in experiment [5]; under 1000 nM in experiment [6]. Also, the MTAP intact/deleted ratio entry in experiment [5] was “B (an IC50 ratio greater than or equal to 3 fold but lower than 10 fold)”.
Regarding `Cc1ccc([C@H]2CC(F)(F)[C@H](C)CN2C(=O)C(=O)Nc2cnc(N)c(C)c2)cn1` (single isomer, unassigned) [Compound 973], the IC50 on PRMT5 [1] was 50 to 500 nM; at PRMT5 [2], 50 to 500 nM; on PRMT5 [3], under 50 nM; in experiment [4], 100 to 1000 nM; in experiment [5] it was under 100 nM; in experiment [6], 1000 to 10000 nM. Further, the MTAP intact/deleted ratio entry in experiment [5] is on record as “A (an IC50 ratio greater than or equal to 10 fold)”.
For `Cc1ccc([C@H]2CC(F)(F)[C@H](C)CN2C(=O)C(=O)Nc2cncc(C(N)=O)c2)cn1` (single isomer, unassigned) [Compound 974], the IC50 on PRMT5 [1] is 50 to 500 nM; on PRMT5 [2], 50 to 500 nM; on PRMT5 [3], under 50 nM; in experiment [4], over 1000 nM; in experiment [5], under 100 nM; in experiment [6], 1000 to 10000 nM. In addition, the MTAP intact/deleted ratio result in experiment [5] was “A (an IC50 ratio greater than or equal to 10 fold)”.
Take `C[C@H]1CC[C@H](c2cc[nH]n2)N(C(=O)C(=O)Nc2cncc(C(N)=O)c2)C1` (single isomer, unassigned) [Compound 978]: the IC50 is over 500 nM at PRMT5 [1]; 50 to 500 nM at PRMT5 [2]; 50 to 500 nM on PRMT5 [3]; over 1000 nM in experiment [4]; over 1000 nM in experiment [5]; over 10000 nM in experiment [6]. For the same compound, the MTAP intact/deleted ratio entry in experiment [5] is recorded as “C (an IC50 ratio of less than 3 fold)”.
As for `Cc1cc(NC(=O)C(=O)N2C[C@H](C)CC[C@H]2c2ccc(NS(C)(=O)=O)nc2)cnc1N` (single isomer, unassigned) [Compound 980], the IC50 on PRMT5 [1] is 50 to 500 nM; on PRMT5 [2] it was 50 to 500 nM; on PRMT5 [3], 50 to 500 nM; in experiment [4], over 1000 nM; in experiment [5] it was over 1000 nM; in experiment [6], over 10000 nM. In experiment [5], the MTAP intact/deleted ratio entry is given as “B (an IC50 ratio greater than or equal to 3 fold but lower than 10 fold)”.
Take `COc1ncc(NC(=O)C(=O)N2C[C@H](C)CC[C@H]2c2ccc(NS(C)(=O)=O)nc2)cc1C(N)=O` (single isomer, unassigned) [Compound 986]: the IC50 on PRMT5 [1] was over 500 nM; at PRMT5 [2] it was 50 to 500 nM; at PRMT5 [3], under 50 nM; in experiment [4] it was over 1000 nM; in experiment [5] it was 100 to 1000 nM; in experiment [6], 1000 to 10000 nM. The MTAP intact/deleted ratio entry in experiment [5] was “A (an IC50 ratio greater than or equal to 10 fold)”.
Consider `Cc1cc(NC(=O)C(=O)N2C[C@@H](C)CC[C@@H]2c2ccc3c(c2)CCNC3=O)cnc1N` (single isomer, unassigned) [Compound 988], for which the IC50 at PRMT5 [1] is over 500 nM; at PRMT5 [2], 50 to 500 nM; on PRMT5 [3], under 50 nM; in experiment [4], over 1000 nM; in experiment [5], 100 to 1000 nM; in experiment [6], 1000 to 10000 nM. The MTAP intact/deleted ratio result in experiment [5] is reported as “A (an IC50 ratio greater than or equal to 10 fold)”.
